For orientation: IC50 means the point on the concentration scale where inhibition reaches its midpoint.

The subject of assay [1] is LTB4 production in murine blood (LTA4H). The assay is described as follows: LTB4 production by calcium ionophore-stimulated murine blood for LTA4H inhibitor activity. It counts as cell-based, CD-1 mice. The conditions noted are these: Mus musculus; murine blood diluted 1 in 15, A23187 stimulated; single determination or average; mark after value = form tested: ′ free base, ″ hydrochloride, ^ formate; read-out: IC50. The essentials:
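Heparinized blood from CD-1 mice was preincubated with compound for 15 min at 37° C, then stimulated with calcium ionophore A23187 (final 7 μg/mL) for 30 min. Centrifugation stopped the reaction, and LTB4 in the supernatant was measured by enzyme immunoassay. Values are single determinations or means of two or more.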

For assay [2], the system named is ex vivo calcium ionophore-stimulated LTB4 production in whole blood. Put plainly: Murine arachidonic acid-induced inflammation model: ex vivo stimulated LTB4 production in blood. The arrangement: species or system Balb/c mice. Conditions: Mus musculus; 30 mg/kg oral gavage; blood diluted 1:1, A23187 stimulated ex vivo; percent inhibition of LTB4 production; read-out: % Inh. LTB4. As for the experimental part:
(§1) Assay 3: Murine Arachidonic Acid-Induced Inflammation Model
(§2) LTA4H inhibitor compounds of the present invention were dissolved in 20% cyclodextran/H2O at a concentration of 3 mg/mL. The solutions were administered by oral gavage to female Balb/c mice weighing approximately 20 grams each (0.2 mL per mouse, 30 mg of LTA4H inhibitor compound per kg). Sixty minutes after being administered an LTA4 inhibitor, each mouse received topical application of 20 μL of arachidonic acid (100 mg/mL in acetone) to the left ear and 20 μL of acetone only to the right ear. After 3 h, the mice were sacrificed, blood was withdrawn in heparinized syringes, and 8 mm ear biopsies were taken. Ear biopsies were weighed to determine edema and then frozen at −80° C. until needed for determination of neutrophil influx.
The microtiter plate contents were incubated for 30 min at 37° C. in a humidified incubator. The reaction was terminated by centrifugation (833×g, 10 min at 4° C.). Supernatants were analyzed for LTB4 by a commercially available enzyme-linked immunoassay (Cayman Chemical Co.) in accordance with the manufacturer's instructions. The percent inhibition of ex vivo stimulated LTB4 production (% Inh. LTB4) was determined by comparison to animals treated identically except that the solution administered by oral gavage was devoid of inhibitor compound.

For assay [3], the target named is T1, recombinant human LTA4 hydrolase (rhLTA4H) (Homo sapiens, UniProt P09960).
T1 construct: made in house; host or cells: Spodoptera frugiperda (Sf-9) cells, baculovirus (pFastBac1)
T1 sequence (P09960 1-611): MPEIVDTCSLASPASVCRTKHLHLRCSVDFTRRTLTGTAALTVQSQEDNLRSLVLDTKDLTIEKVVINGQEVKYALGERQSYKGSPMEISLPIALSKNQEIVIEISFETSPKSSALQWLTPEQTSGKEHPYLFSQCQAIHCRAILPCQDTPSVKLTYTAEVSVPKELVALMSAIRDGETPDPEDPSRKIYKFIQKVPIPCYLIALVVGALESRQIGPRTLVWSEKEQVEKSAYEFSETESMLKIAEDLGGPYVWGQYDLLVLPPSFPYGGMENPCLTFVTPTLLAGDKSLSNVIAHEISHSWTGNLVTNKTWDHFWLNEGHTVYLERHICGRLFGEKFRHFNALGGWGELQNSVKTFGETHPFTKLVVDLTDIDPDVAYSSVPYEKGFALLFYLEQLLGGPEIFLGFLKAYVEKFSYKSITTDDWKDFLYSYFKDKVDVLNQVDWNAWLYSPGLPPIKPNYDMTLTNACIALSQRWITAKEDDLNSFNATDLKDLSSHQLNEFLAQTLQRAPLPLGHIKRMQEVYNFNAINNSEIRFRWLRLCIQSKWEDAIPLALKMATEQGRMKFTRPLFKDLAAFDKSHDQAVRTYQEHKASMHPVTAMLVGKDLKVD
Put plainly: Recombinant human LTA4 hydrolase assay for LTA4 hydrolase inhibitor activity. It counts as biochemical. Conditions: rhLTA4H, LTB4 by immunoassay; single determination or average of two or more; mark after value = form tested: ′ free base, ″ hydrochloride, ^ formate; read-out: IC50. In a few lines: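 Baculovirus/Sf-9-expressed human LTA4H (10 ng) was preincubated 10 min at rt with compound in assay buffer (10% DMSO in compound dilution), then reacted 30 min at rt with LTA4 free acid made from its methyl ester. LTB4 produced was measured by ELISA after dilution; IC50 from non-linear regression, single or averaged determinations.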

Assay [4] relates to arachidonic acid-induced neutrophil influx in murine ear tissue. Put plainly: Murine arachidonic acid-induced inflammation model: neutrophil influx (myeloperoxidase) in ear. It counts as in vivo, Balb/c mice. The conditions noted are these: Mus musculus; 30 mg/kg oral gavage, 60 min before topical arachidonic acid, ear biopsy after 3 h; percent inhibition of neutrophil influx; read-out: % Inh. MPO. As for the experimental part: as §1, §2
Neutrophil influx was quantified by measuring the activity of myeloperoxidase (MPO), a neutrophil-specific enzyme. […] Debris was removed by centrifugation at 14000×g for 10 min. […] The microtiter plate contents were held at room temperature until the sample with the highest concentration of MPO reached an absorbance value of 0.4 at 650 nm. The reaction was stopped by addition of 50 μL 1 M H2SO4 to each sample well, and the myeloperoxidase activity in each sample was determined from the absorbance at […]. The background value from the right ear, treated only with acetone, was subtracted from that for the left ear, treated with arachidonic acid in acetone, for each animal. The percent inhibition of neutrophil influx (% Inh. MPO) by compounds of the invention was determined by comparison to animals treated identically, except that the solution administered by oral gavage was devoid of inhibitor compound. All compounds were assayed in their free base form.

Counter-ions that a name gives are not always drawn.

As for `NC(=O)N1C[C@@H]2C[C@H]1CN2Cc1cc2cc(Oc3nc4ncccc4s3)ccc2o1` [Example 100, (1S,4S)-5-[5-(Thiazolo[4,5-b]pyridin-2-yloxy)-benzofuran-2-ylmethyl]-2,5-diaza-bicyclo[2.2.1]heptane-2-carboxylic acid amide], the figures for the IC50 in assay [1] and in assay [3] were 0.16 µM and 0.069 µM, respectively. Besides, the inhibition at 30 mg/kg came to 44% in assay [2] and 33% in assay [4].

With `CC(=O)N[C@@H]1C[C@H]2CC[C@@H](C1)N2Cc1cc2cc(Oc3nc4ncccc4s3)ccc2o1` [Example 104, meso-exo-N-{8-[5-(Thiazolo[4,5-b]pyridin-2-yloxy)-benzofuran-2-ylmethyl]-8-aza-bicyclo[3.2.1]oct-3-yl}-acetamide], the results for the half-inhibitory concentration (IC50) in assay [1] and in assay [3] were 0.016 µM and 0.01 µM, respectively. For the same molecule, the results for the inhibition at 30 mg/kg in assay [2] and in assay [4] were 83% and 92%, respectively.

With `COCCN(C)Cc1coc2cc(Oc3nc4ncccc4s3)ccc12` [Example 184, (2-Methoxy-ethyl)-methyl-[6-(thiazolo[4,5-b]pyridin-2-yloxy)-benzofuran-3-ylmethyl]-amine], the IC50 in assay [1] amounted to 0.049 µM; in assay [3], 0.008 µM. For the same molecule, the inhibition at 30 mg/kg in assay [2] came out at 82%; in assay [4] it was 53%.

In the case of `CC(=O)N1C[C@@H]2C[C@H]1CN2Cc1coc2cc(Oc3nc4ncccc4s3)ccc12` [Example 154, (1S,4S)-1-{5-[6-(Thiazolo[4,5-b]pyridin-2-yloxy)-benzofuran-3-ylmethyl]-2,5-diaza-bicyclo[2.2.1]hept-2-yl}-ethanone], the IC50 in assay [1] worked out at 0.026 µM; in assay [3] it was 0.007 µM. Besides, the inhibition at 30 mg/kg in assay [2] and in assay [4] was 83% in each case.

As to `CC(=O)N1C[C@@H]2C[C@H]1CN2C(=O)c1coc2cc(Oc3nc4ncccc4s3)ccc12` [Example 371, (1S,4S)-1-{5-[6-(Thiazolo[4,5-b]pyridin-2-yloxy)-benzofuran-3-carbonyl]-2,5-diaza-bicyclo[2.2.1]hept-2-yl}-ethanone], the IC50 in assay [1] was found to be 0.084 µM; in assay [3], 0.025 µM. The inhibition at 30 mg/kg came out at 54% in assay [2] and 82% in assay [4].

In the case of `c1cnc2nc(Oc3ccc4oc(CN5C[C@@H]6C[C@H]5CO6)cc4c3)sc2c1` [Example 99, (1S,4S)-2-[2-(2-Oxa-5-aza-bicyclo[2.2.1]hept-5-ylmethyl)-benzofuran-5-yloxy]-thiazolo[4,5-b]pyridine], the half-inhibitory concentration (IC50) in assay [1] amounted to 0.063 µM; in assay [3], 0.037 µM. Further, the figures for the inhibition at 30 mg/kg in assay [2] and in assay [4] were 15% and 58%, respectively.

Take `CNC(=O)C1CCN(Cc2coc3cc(Oc4nc5ncccc5s4)ccc23)CC1` [Example 214, 1-[6-(Thiazolo[4,5-b]pyridin-2-yloxy)-benzofuran-3-ylmethyl]-piperidine-4-carboxylic acid methylamide]: the IC50 in assay [1] was 0.019 µM; in assay [3], 0.002 µM. Also, the inhibition at 30 mg/kg in assay [2] came to 90%; in assay [4] it was 88%.

Consider `CS(=O)(=O)NC1CCN(Cc2coc3cc(Oc4nc5ncccc5s4)ccc23)CC1` [Example 244, N-{1-[6-(Thiazolo[4,5-b]pyridin-2-yloxy)-benzofuran-3-ylmethyl]-piperidin-4-yl}-methanesulfonamide], for which the IC50 in assay [1] is 0.024 µM; in assay [3], 0.005 µM. Moreover, the inhibition at 30 mg/kg in assay [2] was determined as 80.7%; in assay [4], 89%.

In the case of `CC(=O)NCC1CCN(Cc2coc3cc(Oc4nc5ncccc5s4)ccc23)CC1` [Example 162, N-{1-[6-(Thiazolo[4,5-b]pyridin-2-yloxy)-benzofuran-3-ylmethyl]-piperidin-4-ylmethyl}-acetamide], the IC50 in assay [1] turned out to be 0.026 µM; in assay [3] it was 0.001 µM. The inhibition at 30 mg/kg was 90% in assay [2] and 87% in assay [4].

In the case of `O=C(O)CC1CCN(Cc2c[nH]c3cc(Oc4nc5ccccc5s4)ccc23)CC1` [Example 46, {1-[6-(Benzothiazol-2-yloxy)-1H-indol-3-ylmethyl]-piperidin-4-yl}-acetic acid], the IC50 in assay [1] turned out to be 0.667 µM; in assay [3] it was 0.015 µM.

Consider `NC(=O)N1CC2CN(Cc3cc4ccc(Oc5nc6ncccc6s5)cc4o3)CC2C1` (stereo not shown) [Example 194, 5-[6-(Thiazolo[4,5-b]pyridin-2-yloxy)-benzofuran-2-ylmethyl]-hexahydro-pyrrolo[3,4-c]pyrrole-2-carboxylic acid amide], for which the IC50 was 0.26 µM in assay [1] and 0.039 µM in assay [3].

As for `CC(=O)N1CC2CN(Cc3c[nH]c4cc(Oc5nc6ccccc6s5)ccc34)CC2C1` (stereo not shown) [Example 54, 1-{5-[6-(Benzothiazol-2-yloxy)-1H-indol-3-ylmethyl]-hexahydro-pyrrolo[3,4-c]pyrrol-2-yl}-ethanone], the concentration for half-maximal inhibition (IC50) in assay [1] turned out to be 0.165 µM; in assay [3], 0.004 µM.

For the molecule `NC(=O)N1C[C@@H]2C[C@H]1CN2C(=O)c1coc2cc(Oc3nc4ncccc4s3)ccc12` [Example 375, (1S,4S)-5-[6-(Thiazolo[4,5-b]pyridin-2-yloxy)-benzofuran-3-carbonyl]-2,5-diaza-bicyclo[2.2.1]heptane-2-carboxylic acid amide], the IC50 in assay [1] came out at 0.61 µM; in assay [3], 0.041 µM.

Consider `c1cnc2nc(Oc3ccc4c(CN5CCC(N6CCCCC6)CC5)coc4c3)sc2c1` [Example 284, 1′-[6-(Thiazolo[4,5-b]pyridin-2-yloxy)-benzofuran-3-ylmethyl]-[1,4′]bipiperidinyl formate], for which the IC50 is 0.16 µM in assay [1] and 0.024 µM in assay [3].

With `c1cnc2nc(Oc3ccc4c(CN5CCN(c6ccncc6)CC5)coc4c3)sc2c1` [Example 289, 2-[3-(4-Pyridin-4-yl-piperazin-1-ylmethyl)-benzofuran-6-yloxy]-thiazolo[4,5-b]pyridine formate], the 50% inhibitory concentration (IC50) is 0.04 µM in assay [1] and 0.004 µM in assay [3].

On to `CC(=O)N1[C@@H]2CC[C@H]1C[C@@H](NCc1coc3cc(Oc4nc5ncccc5s4)ccc13)C2` [Example 332, meso-endo-1-(3-{[6-(Thiazolo[4,5-b]pyridin-2-yloxy)-benzofuran-3-ylmethyl]-amino}-8-aza-bicyclo[3.2.1]oct-8-yl)-ethanone formate], for which the IC50 in assay [1] is 0.1 µM; in assay [3], 0.008 µM.

In the case of `c1ccc2sc(Oc3ccc4cc(CN5CCCCC5)[nH]c4c3)nc2c1` [Example 67, 2-(2-Piperidin-1-ylmethyl-1H-indol-6-yloxy)-benzothiazole], the IC50 in assay [1] is 0.295 µM; in assay [3], 0.034 µM.

Source of the values: patent US8399465B2, “Compounds with two fused bicyclic heteroaryl moieties as modulators of leukotriene A4 hydrolase” (Janssen Pharmaceutica NV, priority 2009, dated 2013).
